Entries after “also recorded” stand apart in the source; their conditions may differ. Where two headings read alike, the source gives them in different places.
How the values were obtained:
[1] = system: PCLivS from human liver tissue with biliary fibrosis (PSC, PBC); assay: Fibrotic gene expression (NanoString) in precision cut liver slices; type: cell-based
[2] = system: subjects with PSC and suspected liver fibrosis; assay: Phase 2a INTEGRIS-PSC: gadoxetate contrast MRI of the liver; type: in vivo, human; conditions: for MRI relative enhancement (gadoxetate) / time to arrival to the common bile duct (gadoxetate): Example B-5
Method: Imaging of the whole liver was performed by MRI prior to Baseline and at Week 12 (Parts 1 and 2) and will be performed at Baseline, at Week 12, and at Week 24 (Part 3 only), and will be read centrally utilizing dynamic liver imaging in combination with the contrast agent Gadoxetate disodium and a 4-hour fast (no food or drink, except water). Any clinically significant incidental findings are evaluated as potential AEs.
(§1) Absolute and relative changes from Baseline in liver fibrosis biomarkers (including PRO-C3 and ELF) and in ALP are presented in numerical and graphical forms by treatment and dose utilizing data from the timepoints specified in the Schedule of Events. Changes from Baseline to Week 12(Parts 1 and 2) and Week 24 (Part 3) in magnetic resonance (MR)-based liver imaging are also evaluated, as well as changes in PROs.

[3] = system: subjects with PSC and suspected liver fibrosis; assay: Phase 2a INTEGRIS-PSC: Enhanced Liver Fibrosis (ELF) score and components; type: in vivo, human
Method: The Enhanced Liver Fibrosis (ELF) score is a set of markers for extracellular matrix (ECM) activity. Three serum markers are measured, tissue inhibitor of metalloproteinases 1 (TIMP-1), amino-terminal propeptide of type III procollagen (PIIINP) and hyaluronic acid (HA). The measurements are combined in an algorithm to provide a score that correlates well with the degree of liver fibrosis (Sharma, C. et al., Journal of Gastroenterology and Hepatology, 36:1788-1802(2021), incorporated by reference herein in its entirety). A change in ELF score greater than or equal to 0.19 is indicative of clinical progression within two years (Muir A. J. et al., Hepatology, 2019 February; 69 (2): 684-698, incorporated by reference herein in its entirety). An ELF greater than or equal to 7.7 is considered moderate to severe fibrosis (Vesterhus M. et al., Hepatology, 2015 July; 62(1):188-97; incorporated by reference herein in its entirety).
In Parts 1 and 2, plasma, serum, and urine biomarker samples were obtained at predetermined times as indicated in the Schedule of Events (see Table B-4). In Part 3, plasma and serum biomarker samples were obtained at predetermined times as indicated in the Schedule of Events (see Table B-5 and Table B-6). These samples were used to measure specific proteins, nucleotides and/or metabolites that were elevated in subjects with fibrosis, and/or pharmacodynamic markers that could change with inhibition of integrins αVβ6 and αVβ1. The samples were also used to perform exploratory investigations using metabolomic or proteomic methods for use in future studies in subjects with fibrotic diseases.
as §1

other integrin receptors = assay: Integrin-ligand binding assays (selectivity); conditions: including leukocyte-expressed integrins
[4] = system: subjects with PSC and suspected liver fibrosis
[5] = system: subjects with PSC and suspected liver fibrosis; assay: Phase 2a INTEGRIS-PSC: liver biochemistry (ALP, ALT, AST, bilirubin); type: in vivo, human
Method: Fasting blood and urine specimens for safety laboratory assessments were or will be obtained at the time points specified in the Schedule of Events (see Table B-4, Table B-5, and Table B-6). Specimens are obtained after at least an 8-hour fast. Subjects are in a seated or supine position during blood collection. Creatinine clearance is calculated using the Cockcroft-Gault equation.
as §1

[6] = ≥1 μM, PCLivS from 10 livers with biliary fibrosis (6 PSC, 4 PBC), 2 days
[7] = all doses, Week 12, MRI sub-study, Example B-4
[8] = 40 mg (n = 24), 12 weeks, Example B-3
[9] = 40 mg once daily, Week 12, n = 24
[10] = 80 mg (n = 20), 12 weeks, Example B-3
[11] = 80 mg once daily, Week 12, n = 20
[12] = 160 mg (n = 20), 12 weeks, Example B-3
[13] = 160 mg once daily, Week 12, n = 20
[14] = 320 mg once daily, Week 12, n = 27
[15] = 320 mg, Example B-5 24-week data (Table D-7), n = 27
[16] = 40, 80, 160, and 320 mg pooled, Week 12, n = 91
[17] = All (n = 64), 12 weeks, Example B-3

Compound: COCCN(CCCCc1ccc2c(n1)NCCC2)CC[C@H](Nc1ncnc2ccccc12)C(=O)O [Bexotegrast, (S)-4-((2-methoxyethyl)(4-(5,6,7,8-tetrahydro-1,8-naphthyridin-2-yl)butyl)amino)-2-(quinazolin-4-ylamino)butanoic acid]
- inhibition of the TGF-β-driven COLIA2 expression ([1]; relative to inhibition with high dose ALK5 inhibitor, PCLivS from 10 livers): ≤ 43%
- significant reduction in expression of COLIA2 [1, 6]: 19%
- significant reduction in expression of TGF-81 [1, 6]: 24%
- trend down in overall expression of COL3A1 [1, 6]: 15%
- MRI relative enhancement (gadoxetate) ([2]; 320 mg, Week 12, MRI sub-study): increased relative enhancement
- time to arrival to the common bile duct (gadoxetate) ([2]; 320 mg, Week 12, MRI sub-study): decreased time to arrival
- MRI imaging: hepatocyte function and bile flow relative to placebo ([2]; 320 mg, Week 12, Example B-4): evidence of improved hepatocyte function and bile flow
- MRI relative enhancement (gadoxetate) ([2]; 320 mg, Week 24, MRI sub-study): further increase in relative enhancement
- time to arrival to the common bile duct (gadoxetate) ([2]; 320 mg, Week 24, MRI sub-study): faster time to arrival
- change in Gadoxetate time of arrival in bile duct ([2]; all doses compared to placebo, Week 12, Example B-3): shorter
- MRI relative enhancement in whole liver (gadoxetate) ([2]; all doses, Baseline to Week 12, compared to a reduction in placebo, Example B-3): improvement in relative enhancement
- Gadoxetate relative enhancement (RE) compared to the placebo [2, 7]: increase
- Gadoxetate time of arrival to the common bile duct compared to the placebo [2, 7]: reduced
- ELF score components TIMP-1, HA, PIIINP vs placebo ([3]; 160 mg, Week 12, Example B-3): achieved statistical significance
- ELF score, difference to placebo ([3]; 160 mg, Week 12, Example B-3): statistically significant difference
- reduction of the mean change in ELF score relative to placebo ([3]; 160 mg, Week 12, Example B-3): 84%
- ELF score relative to placebo ([3]; 320 mg, Week 12, Example B-4): reduction
- ELF score, overall population ([3]; 320 mg, Week 12 to Week 24, Example B-5): no increase; also recorded: stable ELF score
- ELF score, patients at high risk (baseline ELF >9.8) ([3]; 320 mg, Week 24, compared to an increase in the placebo group, Example B-5): reduction in ELF score
- ELF score components (TIMP-1, PIIINP, HA) compared to placebo ([3]; 40, 80, 160, 320 mg, Week 12, Example B-4): generally reduced
- ELF score relative to placebo ([3]; all doses (40, 80, 160 mg), Week 12, Example B-3): reduced
- ELF scores relative to placebo ([3]; all doses (40, 80, 160, 320 mg), Week 12, Example B-4): reduced
- selectivity for αVβ6 and αVβ1 over other integrin receptors (other integrin receptors): highly selective
- COVID-19 TEAE, % of Participants Reporting [4, 8]: (8.3) %
- COVID-19 TEAE, n of Participants Reporting [4, 8]: 2 n
- TEAE Leading to Death, n of Participants Reporting [4, 8]: 0 n
- COVID-19 TEAE, % of Participants Reporting [4, 9]: (8.3) %
- COVID-19 TEAE, n of Participants Reporting [4, 9]: 2
- TEAE Leading to Death, n of Participants Reporting [4, 9]: 0
- TEAE Leading to Withdrawal of bexotegrast, n of Participants Reporting ([4]; 40 mg once daily, Week 12, n = 24, COVID-19/dyspnoea/nasal congestion): 1
- TEAE leading to withdrawal: AE Preferred Term ([4]; 40 mg treatment group, Example B-3): COVID-19/
- COVID-19 TEAE, % of Participants Reporting [4, 10]: (5.0) %
- COVID-19 TEAE, n of Participants Reporting [4, 10]: 1 n
- TEAE Leading to Death, n of Participants Reporting [4, 10]: 0 n
- COVID-19 TEAE, % of Participants Reporting [4, 11]: (5.0) %
- COVID-19 TEAE, n of Participants Reporting [4, 11]: 1
- TEAE Leading to Death, n of Participants Reporting [4, 11]: 0
- COVID-19 TEAE, n of Participants Reporting [4, 12]: 0 n
- TEAE Leading to Death, n of Participants Reporting [4, 12]: 0 n
- COVID-19 TEAE, n of Participants Reporting [4, 13]: 0
- TEAE Leading to Death, n of Participants Reporting [4, 13]: 0
- COVID-19 TEAE, % of Participants Reporting [4, 14]: (14.8) %
- COVID-19 TEAE, n of Participants Reporting [4, 14]: 4
- TEAE Leading to Death, n of Participants Reporting [4, 14]: 0
- TEAE Leading to Death, n of Participants Reporting After Week 12 ([4]; 320 mg, After Week 12 (Table D-4), n = 27): 0
- COVID-19 TEAE, % of Participants Reporting [4, 15]: 18.5%
- COVID-19 TEAE, n of Participants Reporting [4, 15]: 5
- TEAE Leading to Death, n of Participants Reporting ([4]; 320 mg, after 24 weeks (Table D-3), n = 27): 0
- COVID-19 TEAE, % of Participants Reporting [4, 16]: (7.7) %
- COVID-19 TEAE, n of Participants Reporting [4, 16]: 7
- TEAE Leading to Death, n of Participants Reporting [4, 16]: 0
- COVID-19 TEAE, % of Participants Reporting [4, 17]: (4.7) %
- COVID-19 TEAE, n of Participants Reporting [4, 17]: 3 n
- TEAE Leading to Death, n of Participants Reporting [4, 17]: 0 n
- Cholangitis (TEAE), n of Participants Reporting ([4]; human, in vivo, 12 weeks): 2 n
- Fatigue (TEAE), n of Participants Reporting ([4]; human, in vivo, 12 weeks): 9 n
- Frequent bowel movements (TEAE), % of Participants Reporting ([4]; human, in vivo, 12 weeks): (4.7) %
- Frequent bowel movements (TEAE), n of Participants Reporting ([4]; human, in vivo, 12 weeks): 3 n
- Headache (TEAE), n of Participants Reporting ([4]; human, in vivo, 12 weeks): 6 n
- Nausea (TEAE), n of Participants Reporting ([4]; human, in vivo, 12 weeks): 6 n
- Pruritus (TEAE), n of Participants Reporting ([4]; human, in vivo, 12 weeks): 9 n
- Serious TEAE Related to study drug, n of Participants Reporting ([4]; human, in vivo, 12 weeks): 0 n
- Serious TEAE, % of Participants Reporting ([4]; human, in vivo, 12 weeks): (3.1) %
- Serious TEAE, n of Participants Reporting ([4]; human, in vivo, 12 weeks): 2 n
- TEAE Leading to Early Termination from Study, % of Participants Reporting ([4]; human, in vivo, 12 weeks): (1.6)^1%
- TEAE Leading to Early Termination from Study, n of Participants Reporting ([4]; human, in vivo, 12 weeks): 1 n
- TEAE Leading to Interruption of Study Drug, % of Participants Reporting ([4]; human, in vivo, 12 weeks): (1.6)^1%
- TEAE Leading to Interruption of Study Drug, n of Participants Reporting ([4]; human, in vivo, 12 weeks): 1 n
- TEAE Leading to Withdrawal of Study Drug, % of Participants Reporting ([4]; human, in vivo, 12 weeks): (4.7)^2, 3, 4%
- TEAE Leading to Withdrawal of Study Drug, n of Participants Reporting ([4]; human, in vivo, 12 weeks): 3 n
- TEAE Related to study drug, % of Participants Reporting ([4]; human, in vivo, 12 weeks): (17.2) %
- TEAE Related to study drug, n of Participants Reporting ([4]; human, in vivo, 12 weeks): 11 n
- TEAE of CTCAE Grade 3 or Higher Related to study drug, n of Participants Reporting ([4]; human, in vivo, 12 weeks): 0 n
- TEAE of CTCAE Grade 3 or Higher, % of Participants Reporting ([4]; human, in vivo, 12 weeks): (6.3) %
- TEAE of CTCAE Grade 3 or Higher, n of Participants Reporting ([4]; human, in vivo, 12 weeks): 4 n
- TEAE, % of Participants Reporting ([4]; human, in vivo, 12 weeks): (64.1) %
- TEAE, n of Participants Reporting ([4]; human, in vivo, 12 weeks): 41 n
- AEs of pruritus and cholangitis relative to placebo ([4]; in vivo): occurred less frequently
- ALP, all participants ([5]; 320 mg, over 24 weeks, compared to increased levels on placebo, Example B-5): statistically significant reduction
- ALP, patients with elevated baseline ALP values ([5]; 320 mg, over 24 weeks, Example B-5): greater reductions
- ALP relative to placebo ([5]; 40, 80, 160 mg, Week 12, Example B-3): dose-dependent trend for reduction in ALP
- liver chemistry levels (ALT, AST, total and direct bilirubin) ([5]; all doses versus increases in placebo, Week 12, Example B-3): stabilization of liver chemistry levels
- ALP relative to the placebo ([5]; subgroup with elevated ALP (>ULN) at Baseline, Week 12, Example B-4): stabilized

Source: patent US20250120975A1, “INTEGRIN INHIBITORS FOR TREATMENT OF PRIMARY SCLEROSING CHOLANGITIS” (Pliant Therapeutics, Inc., priority 2023, published 2025)
